The source of these data is ChEMBL document CHEMBL3797148, “Antiprotozoal activity of dehydroabietic acid derivatives against Leishmania donovani and Trypanosoma cruzi” (Medchemcomm, 2016).

Some results are limits rather than exact numbers.

One data set has as its system Leishmania infantum. Briefly: Antileishmanial activity against promastigote stage of Leishmania infantum MCAN/ES/2001/UCM-10 after 72 hrs by Neubauer haemocytometric analysis. Type of data set: functional, organism-based. The note with it: MCAN/ES/2001/UCM-10, 72 h.
Data set [1] relates to Trypanosoma cruzi. Put plainly: Antiparasitic activity against epimastigote stage of Trypanosoma cruzi IRHOD/CO/2008/SN3 after 72 hrs by Neubauer haemocytometric analysis. Type of data set: functional, organism-based. The note with it: IRHOD/CO/2008/SN3, 72 h.
The test system of another data set is Leishmania braziliensis. Briefly: Antileishmanial activity against promastigote stage of Leishmania braziliensis MHOM/BR/75/M2904 after 72 hrs by Neubauer haemocytometric analysis. Format: functional. The note with it: MHOM/BR/75/M2904, 72 h.
In data set [2] the test system is Leishmania donovani. Briefly: Antileishmanial activity against axenic amastigote stage of Leishmania donovani MHOM/SD/1962/1S-Cl2d assessed as inhibition of parasite growth at 1 uM after 24 hrs by Alamar blue viability assay. The note with it: read-out: GI. Format: functional. Background: Resazurin is reduced to fluorescent resorufin, in cell work by metabolically active cells.

Data set [3] has as its system Leishmania donovani. Briefly: Antileishmanial activity against axenic amastigote stage of Leishmania donovani MHOM/SD/1962/1S-Cl2d assessed as inhibition of parasite growth at 15 uM after 24 hrs by Alamar blue viability assay. Format: functional. The conditions noted are these: read-out: GI.
For data set [4], the system named is Leishmania donovani. Briefly: Antileishmanial activity against axenic amastigote stage of Leishmania donovani MHOM/SD/1962/1S-Cl2d assessed as inhibition of parasite growth at 50 uM after 24 hrs by Alamar blue viability assay. Type of data set: functional. The conditions noted are these: read-out: GI.
The test system of a further data set is L6. Put plainly: Cytotoxicity against rat L6 cells after 72 hrs by Alamar blue assay. The note with it: L6, 72 h. Format: cell-based.
A short description of data set [5]: Selectivity index, ratio of IC50 for rat L6 cells to IC50 for amastigote stage of Trypanosoma cruzi Tulahuen C2C4 expressing LacZ gene infected in rat L6 cells. Format: toxicity, cell-based. The note with it: read-out: Ratio IC50.
For data set [6], the system named is Trypanosoma cruzi. Put plainly: Antiparasitic activity against amastigote stage of Trypanosoma cruzi Tulahuen C2C4 expressing LacZ gene infected in rat L6 cells after 96 hrs by photometric analysis. Type of data set: functional, organism-based. The conditions noted are these: Tulahuen C2C4, L6, 96 h.
For data set [7], the system named is Trypanosoma cruzi. Briefly: Potency index of ratio of Benznidazole IC50 to compound IC50 for antiparasitic activity against amastigote stage of Trypanosoma cruzi Tulahuen C2C4. Format: functional.
The test system of data set [8] is Leishmania donovani. Put plainly: Antileishmanial activity against axenic amastigote stage of Leishmania donovani MHOM/SD/1962/1S-Cl2d assessed as inhibition of parasite growth after 24 hrs by Alamar blue viability assay. Format: functional, organism-based.
Data set [9] can be described thus: Cytotoxicity against human THP1 cells after 24 hrs by Alamar blue viability assay. Format: cell-based. The note with it: THP-1, 24 h.
In data set [10] the test system is Leishmania donovani. Briefly: Antileishmanial activity against axenic amastigote stage of Leishmania donovani MHOM/SD/1962/1S-Cl2d assessed as inhibition of parasite growth at 5 uM after 24 hrs by Alamar blue viability assay. Type of data set: functional. The conditions noted are these: read-out: GI.
Data set [11] in a line: Selectivity index, ratio of IC50 for human THP-1 cells to IC50 for Leishmania donovani MHOM/SD/1962/1S-Cl2d axenic amastigotes. Format: toxicity, cell-based. The conditions noted are these: read-out: Ratio IC50.
Data set [12] has as its system Leishmania donovani. Briefly: Antileishmanial activity against Leishmania donovani promastigotes infected in human THP1 cells assessed as inhibition of amastigote growth by luciferase assay. Type of data set: functional, organism-based. The conditions noted are these: THP-1.

As a reminder, the IC50 is the concentration at which inhibition is half-maximal. Consider `COC(=O)[C@]1(C)CCC[C@]2(C)C3=C(CC[C@@H]12)C(=O)C(C(C)C)=CC3=O`, for which the IC50 in the data set on Leishmania infantum, in the data set on Trypanosoma cruzi [1] and with Leishmania braziliensis was 14.2 µM throughout.
In the case of `C[C@@H]1[C@H](O)[C@@H](C)/C=C/C=C/C=C/C=C/C=C/C=C/C=C/[C@H](O[C@@H]2O[C@H](C)[C@@H](O)[C@H](N)[C@@H]2O)C[C@@H]2O[C@](O)(C[C@@H](O)C[C@@H](O)[C@H](O)CC[C@@H](O)C[C@@H](O)CC(=O)O[C@H]1C)C[C@H](O)[C@H]2C(=O)O` [AMPHOTERICIN B], in the data set on Leishmania donovani [2], the inhibition of growth at 1 µM was more than 90%.
Regarding `COC(=O)[C@@H](Cc1cccnc1)NC(=O)[C@]1(C)CCC[C@]2(C)c3ccc(C(C)C)cc3CC[C@@H]12`, in the data set on Leishmania donovani [3], the inhibition of growth at 15 µM amounted to 16.5%. Further, the inhibition of growth at 50 µM with Leishmania donovani [4] was 98.6%. In addition, the IC50 is 24.1 µM in the data set with L6 and 1.4 µM with Trypanosoma cruzi [6]. The selectivity ratio in [5] was 17. Moreover, the “Ratio IC50” value in the data set on Trypanosoma cruzi [7] turned out to be 1.5.
Regarding `CC(C)c1ccc2c(c1)C(=O)C[C@H]1[C@](C)(C(=O)N[C@@H](CC3CCCCC3)C(=O)O)CCC[C@]21C`, the inhibition of growth at 15 µM in the data set on Leishmania donovani [3] turned out to be 98.6%. For the same molecule, the IC50 in the data set on Leishmania donovani [8] worked out at 4 µM; in the data set with L6, 77.2 µM; in data set [9], 52 µM; in the data set with Trypanosoma cruzi [6], 3.9 µM; with Leishmania donovani [12] it was 2.3 µM. Also, the inhibition of growth at 50 µM in the data set with Leishmania donovani [4] amounted to 99.1%. The results for the selectivity ratio in data set [5] and in data set [11] were 20 and 13, respectively. Moreover, in the data set on Leishmania donovani [10], the inhibition of growth at 5 µM turned out to be 82.8%.
In the case of `COC(=O)[C@H](CC1CCCCC1)NC(=O)[C@]1(C)CCC[C@]2(C)c3ccc(C(C)C)cc3C(=O)C[C@@H]12`, the inhibition of growth at 15 µM in the data set with Leishmania donovani [3] was found to be 76.3%. The IC50 in the data set on Leishmania donovani [8] came to 4.6 µM; in the data set on L6 it was 33.5 µM; in data set [9], 62.1 µM; with Trypanosoma cruzi [6] it was 4.2 µM; with Leishmania donovani [12], 6.6 µM. Moreover, the inhibition of growth at 50 µM with Leishmania donovani [4] stood at 90.2%. Also, the selectivity ratio turned out to be 8 in data set [5] and 14 in data set [11]. In the data set with Leishmania donovani [10], the inhibition of growth at 5 µM was 33.3%.
